Reference: patent publication US10654884B2 (Vitae Pharmaceuticals, Inc., priority 2014, dated 2020)

Legend:
human CD73 = target: T1, human CD73 (Homo sapiens, UniProt P21589); assay: Inhibition of 5′-Nucleotidase Activity of CD73 (Assay 1); format: biochemical; conditions: human CD73 4 ng/ml, 50 μM CMP, 20 min at RT, malachite green readout; read-out: Assay 1: IC50, inhibition of 5′-nucleotidase activity of CD73
T1 construct: purchased R&D Systems 5795-EN-010
T1 sequence (P21589 27-549): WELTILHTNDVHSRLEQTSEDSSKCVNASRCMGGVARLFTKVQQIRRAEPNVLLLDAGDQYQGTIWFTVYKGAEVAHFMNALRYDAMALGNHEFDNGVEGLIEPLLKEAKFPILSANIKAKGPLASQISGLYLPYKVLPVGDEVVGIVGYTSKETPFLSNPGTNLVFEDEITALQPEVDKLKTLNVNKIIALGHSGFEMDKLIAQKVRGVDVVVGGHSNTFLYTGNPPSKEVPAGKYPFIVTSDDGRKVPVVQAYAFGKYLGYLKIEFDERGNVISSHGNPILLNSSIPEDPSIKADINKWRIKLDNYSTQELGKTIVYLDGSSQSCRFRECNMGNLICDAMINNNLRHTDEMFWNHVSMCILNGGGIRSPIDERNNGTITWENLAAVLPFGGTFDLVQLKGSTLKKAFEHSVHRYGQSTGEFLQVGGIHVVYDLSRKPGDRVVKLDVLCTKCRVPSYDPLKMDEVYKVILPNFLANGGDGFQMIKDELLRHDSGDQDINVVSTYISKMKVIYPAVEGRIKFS
Protocol: Inhibition of 5′-Nucleotidase Activity of CD73 (Assay 1)
Compounds of the present invention were tested for the ability to inhibit CD73 enzyme activity. Tested compounds were dissolved in DMSO (50× final concentration), and 3.2 μL of the solutions added to 96-well polystyrene plates. To these wells were added, 100 μL of human CD73 (R&D Systems Cat. No. 5795-EN-010) and 57 μL of cytidine-5′-monophosphate (CMP) solutions in assay buffer (25 mM Tris-HCl, pH 7.4, 0.005% Brij-35) were added to achieve final concentrations in the assay of 4 ng/ml CD73 and 50 μM of CMP. The assay mixture was incubated for 20 min at RT. The reaction was stopped by addition of 40 μL of malachite green reagent which was prepared by mixing together 10 ml 2M H2SO4, 2.5 ml of 15% ammonium molybdate and 0.2 ml of 11% Tween-20. The mixture was agitated vigorously for 10 min at RT, and absorbance at 620 nm was determined on a microplate spectrophotometer. […] The IC50 values were derived using a non-linear 4 parameter logistic model (XLFit software, IDBS) and correspond to the inflection points on dose-response curves.

[1] = target: T2, CD73 on U138 neuroglioma cells (Homo sapiens, UniProt P21589); assay: Inhibition of Ecto-5′-Nucleotidase Activity in U138 Neuroglioma Cells (Assay 2); format: cell-based; conditions: 50 μM CMP, 2 hr at 37° C., malachite green readout, read-out: Assay 2: IC50, inhibition of ecto-5′-nucleotidase activity in U138 neuroglioma cells
T2 construct: U138 neuroglioma cells, which express CD73 on their surface; endogenous in cells; host or cells: U138 neuroglioma cells (ATCC)
T2 sequence (P21589 27-549): T1 sequence (P21589 27-549)
Protocol: Inhibition of Ecto-5′-Nucleotidase Activity in U138 Neuroglioma Cells (Assay 2)
U138 cells were obtained from the American Type Culture Collection (ATCC) (Manassas, Va.), and cultured in complete growth media (DMEM, 10% FBS, 1 mM L-glutamine, 100 U penicillin-streptomycin) at 37° C., 5% CO2. The day before the experiment, cells were seeded at 2,500 cells/well in 100 μL of complete media into 96-well plates. Cells were washed twice with 200 μL of assay buffer (20 mM HEPES, pH 7.4, 137 mM NaCl, 5.4 mM KCl, 1.3 mM CaCl2, 4.2 mM NaHCO3, 1 mg/mL glucose) to remove residual inorganic phosphate. After washing, assays contained serial dilutions of test compounds and 50 μM of cytidine-5′-monophosphate (CMP) in a total volume of 200 μL of assay buffer, with a final DMSO concentration ≤0.1%. After 2 hr at 37° C., 5% CO2, 100 μL of supernatant was removed from the cells and the concentration of inorganic phosphate was determined using malachite green reagent. IC50 values for test compounds were determined from nonlinear regression fits of the data using XLfit (IDBS).

SMILES	IC50 (human CD73)	IC50 [1]
CC(C)COC(=O)[C@@H](OC[C@H]1O[C@@H](n2cnc3c(N)nc(Cl)nc32)[C@H](O)[C@@H]1O)P(=O)(O)O (single isomer, unassigned) [Example 14a]	100 to 1000 nM	100 to 1000 nM
CC(C)(C)OC(=O)[C@H](OC[C@H]1O[C@@H](n2cnc3c(N)nc(Cl)nc32)[C@H](O)[C@@H]1O)P(=O)(O)O (single isomer, unassigned) [Example 15]	< 100 nM	< 100 nM
CC(C)(C)OC(=O)[C@@H](OC[C@H]1O[C@@H](n2cnc3c(N)nc(Cl)nc32)[C@H](O)[C@@H]1O)P(=O)(O)O (single isomer, unassigned) [Example 15a]	100 to 1000 nM	100 to 1000 nM
Nc1nc(Cl)nc2c1ncn2[C@@H]1O[C@H](CO[C@@H](C(=O)OCc2ccccc2)P(=O)(O)O)[C@@H](O)[C@H]1O (single isomer, unassigned) [Example 16]	< 100 nM	< 100 nM
CC(C)CNC(=O)[C@H](OC[C@H]1O[C@@H](n2cnc3c(N)nc(Cl)nc32)[C@H](O)[C@@H]1O)P(=O)(O)O (single isomer, unassigned) [Example 17]	< 100 nM	< 100 nM
CC(C)CNC(=O)[C@@H](OC[C@H]1O[C@@H](n2cnc3c(N)nc(Cl)nc32)[C@H](O)[C@@H]1O)P(=O)(O)O (single isomer, unassigned) [Example 17a]	100 to 1000 nM	< 100 nM
CCNC(=O)[C@H](OC[C@H]1O[C@@H](n2cnc3c(N)nc(Cl)nc32)[C@H](O)[C@@H]1O)P(=O)(O)O (single isomer, unassigned) [Example 18]	< 100 nM	100 to 1000 nM
CCNC(=O)[C@@H](OC[C@H]1O[C@@H](n2cnc3c(N)nc(Cl)nc32)[C@H](O)[C@@H]1O)P(=O)(O)O (single isomer, unassigned) [Example 18a]	100 to 1000 nM	< 100 nM
CC(C)(C)NC(=O)[C@H](OC[C@H]1O[C@@H](n2cnc3c(N)nc(Cl)nc32)[C@H](O)[C@@H]1O)P(=O)(O)O (single isomer, unassigned) [Example 19]	< 100 nM	< 100 nM
CC(C)(C)NC(=O)[C@@H](OC[C@H]1O[C@@H](n2cnc3c(N)nc(Cl)nc32)[C@H](O)[C@@H]1O)P(=O)(O)O (single isomer, unassigned) [Example 19a]	100 to 1000 nM	100 to 1000 nM
Cc1nnc(C(OC[C@H]2O[C@@H](n3cnc4c(N)nc(Cl)nc43)[C@H](O)[C@@H]2O)P(=O)(O)O)o1 (single isomer, unassigned) [Example 21]	< 100 nM	100 to 1000 nM
Cc1nnc(C(OC[C@H]2O[C@@H](n3cnc4c(N)nc(Cl)nc43)[C@H](O)[C@@H]2O)P(=O)(O)O)o1 (single isomer, unassigned) [Example 21a]	100 to 1000 nM	> 1000 nM
CCOC(=O)[C@H](OC[C@H]1O[C@@H](n2cnc3c(NC4CC4)nc(Cl)nc32)[C@H](O)[C@@H]1O)P(=O)(O)O (single isomer, unassigned) [Example 22]	< 100 nM	< 100 nM
CCOC(=O)[C@@H](OC[C@H]1O[C@@H](n2cnc3c(NC4CC4)nc(Cl)nc32)[C@H](O)[C@@H]1O)P(=O)(O)O (single isomer, unassigned) [Example 22a]	100 to 1000 nM	100 to 1000 nM
CCOC(=O)[C@H](OC[C@H]1O[C@@H](n2cnc3c(NC)nc(Cl)nc32)[C@H](O)[C@@H]1O)P(=O)(O)O (single isomer, unassigned) [Example 23]	< 100 nM	< 100 nM
CCOC(=O)[C@@H](OC[C@H]1O[C@@H](n2cnc3c(NC)nc(Cl)nc32)[C@H](O)[C@@H]1O)P(=O)(O)O (single isomer, unassigned) [Example 23a]	100 to 1000 nM	100 to 1000 nM
CCOC(=O)[C@H](OC[C@H]1O[C@@H](n2cnc3c(NCc4ccccc4)nc(Cl)nc32)[C@H](O)[C@@H]1O)P(=O)(O)O (single isomer, unassigned) [Example 24]	< 100 nM	< 100 nM
